Laboratory results reported in patent US20220257597A1, “Methods of Administering Elagolix” (AbbVie Inc., priority 2021, published 2022).

Assay: Drug-drug interaction study: effect of multiple doses of elagolix sodium on pharmacokinetics of omeprazole (CYP2C19 substrate) and its metabolites
Conditions: for M:P AUCinf Ratio, Relative Bioavailability Point Estimate / M:P AUCt Ratio, Relative Bioavailability Point Estimate: Day 11 vs. Day 1; for AUCinf / AUCt / Cmax: geometric mean; for t1/2: harmonic mean; for RAUCinf = metabolite-to-omeprazole AUCinf ratio / RAUCt = metabolite-to-omeprazole AUCt ratio / Tmax: median; for M:P AUCinf Ratio, Central Value Reference / M:P AUCt Ratio, Central Value Reference: Study Day 1: omeprazole 40 mg; for M:P AUCinf Ratio, Central Value Test / M:P AUCt Ratio, Central Value Test: Study Day 11: elagolix 300 mg BID + omeprazole 40 mg
Protocol: Subjects: Twenty adult premenopausal female subjects were enrolled in the study.
Beginning on Day 3, subjects received elagolix 300 mg BID under fasting conditions every day until Day 10. […] Doses of elagolix were separated by approximately 12 hours.
Testing was performed for CYP2C19 variants including the *2 (r54244285), *3 (r54986893), *4 (r528399504), *8 (r541291556), *10 (r56413438) and *12 (r555640102) alleles.
Safety was evaluated during confinement and at each study visit through adverse event monitoring, vital signs measurements, physical examinations, and routine laboratory tests.

[1] = Study Day 11, omeprazole 40 mg + elagolix 300 mg BID
[2] = single 40 mg omeprazole, elagolix 300 mg twice daily

| SMILES | M:P AUCinf Ratio, Relative Bioavailability Point Estimate | M:P AUCt Ratio, Relative Bioavailability Point Estimate | AUCinf (Study Day 1, omeprazole 40 mg) | AUCt (Study Day 1, omeprazole 40 mg) | Cmax (Study Day 1, omeprazole 40 mg) | t1/2 (Study Day 1, omeprazole 40 mg) | RAUCinf = metabolite-to-omeprazole AUCinf ratio (Study Day 1, omeprazole 40 mg) | RAUCt = metabolite-to-omeprazole AUCt ratio (Study Day 1, omeprazole 40 mg) | Tmax (Study Day 1, omeprazole 40 mg) | M:P AUCinf Ratio, Central Value Reference | M:P AUCt Ratio, Central Value Reference | AUCinf [1] | AUCt [1] | Cmax [1] | RAUCinf = metabolite-to-omeprazole AUCinf ratio [1] | RAUCt = metabolite-to-omeprazole AUCt ratio [1] | Tmax [1] | M:P AUCinf Ratio, Central Value Test | M:P AUCt Ratio, Central Value Test | other results |
| --- | --- | --- | --- | --- | --- | --- | --- | --- | --- | --- | --- | --- | --- | --- | --- | --- | --- | --- | --- | --- |
| COc1ccc2nc(S(=O)(=O)Cc3ncc(C)c(OC)c3C)[nH]c2c1 [omeprazole sulfone] | 1.246 | 1.497 | 1400 ng·h/mL | 1240 ng·h/mL | 152 ng/mL | 3.27 h | 0.85 | 0.76 | 3.5 h | 0.825 | 0.679 | 3450 ng·h/mL | 3380 ng·h/mL | 411 ng/mL | 0.99 | 0.97 | 4.0 h | 1.028 | 1.017 | Cmax and AUCinf values upon co-administration with elagolix, in words (co-administration with elagolix): increased; increase in AUCinf (elagolix 300 mg BID dosing): 2.5 fold; increase in Cmax (elagolix 300 mg BID dosing): 2.7 fold; increase in M:P AUCinf ratio (elagolix 300 mg BID dosing): 25%; increase in exposures (AUCinf) in CYP2C19 EM and IM subjects (extensive and intermediate metabolizers, elagolix co-administration): ~3 fold; AUCinf ratio, co-administered with elagolix vs omeprazole alone [2]: about 2.55; Cmax ratio, co-administered with elagolix vs omeprazole alone [2]: about 2.70 |
| COc1ccc2nc([S+]([O-])Cc3ncc(CO)c(OC)c3C)[nH]c2c1 (centres unmarked) [5-hydroxyomeprazole] | 0.432 | 0.412 | 883 ng·h/mL | 857 ng·h/mL | 195 ng/mL | 1.88 h | 0.61 | 0.65 | 2.0 h | 0.458 | 0.471 | 664 ng·h/mL | 643 ng·h/mL | 134 ng/mL | 0.20 | 0.20 | 3.0 h | 0.198 | 0.194 | t1/2 [1]: 1.97 h; decrease in AUCinf in all genotype subgroups (all CYP2C19 genotype subgroups, elagolix co-administration): 20-30%; decrease in AUCinf (elagolix 300 mg BID dosing): ~25%; decrease in Cmax (elagolix 300 mg BID dosing): approximately 30%; decrease in M:P AUCinf ratio (elagolix 300 mg BID dosing): 60% |
